Test results published in ChEMBL document CHEMBL3045082, “Novel quinazolinone derivatives: synthesis and antimicrobial activity” (2013).
Converted amounts (≈) assume the structure as drawn. The source made the active and inactive calls. The calls are words filed in the database; no cut-off is given here.

Key:
Staphylococcus aureus [1] = test: Antimicrobial activity against Staphylococcus aureus ATCC 25923 assessed as diameter of growth inhibition zone at 1 mg/ml after 24 hr by agar diffusion method; assay type: functional; settings: ATCC 25923, 24 h, read-out: DIZ
Streptococcus pyogenes [2] = test: Antimicrobial activity against Streptococcus pyogenes ATCC 19615 assessed as diameter of growth inhibition zone at 1 mg/ml after 24 hr by agar diffusion method; assay type: functional; settings: ATCC 19615, 24 h, read-out: DIZ
[3] = tested on: Pseudomonas savastanoi pv. phaseolicola; test: Antimicrobial activity against Pseudomonas syringae pv. phaseolicola GSPB 2828 assessed as growth inhibition after 24 to 48 hr by two-fold serial dilution method; assay type: functional
Pseudomonas fluorescens [4] = test: Antimicrobial activity against Pseudomonas fluorescens S 97 assessed as diameter of growth inhibition zone at 1 mg/ml after 24 hr by agar diffusion method; assay type: functional; settings: S 97, 24 h, read-out: DIZ
Streptococcus pyogenes [5] = test: Antimicrobial activity against Streptococcus pyogenes ATCC 19615 assessed as growth inhibition after 24 to 48 hr by two-fold serial dilution method; assay type: functional
Staphylococcus aureus [6] = test: Antimicrobial activity against Staphylococcus aureus ATCC 25923 assessed as growth inhibition after 24 to 48 hr by two-fold serial dilution method; assay type: functional
Pseudomonas fluorescens [7] = test: Antimicrobial activity against Pseudomonas fluorescens S 97 assessed as growth inhibition after 24 to 48 hr by two-fold serial dilution method; assay type: functional
[8] = tested on: Pseudomonas savastanoi pv. phaseolicola; test: Antimicrobial activity against Pseudomonas syringae pv. phaseolicola GSPB 2828 assessed as diameter of growth inhibition zone at 1 mg/ml after 24 hr by agar diffusion method; assay type: functional; settings: GSPB 2828, 24 h, read-out: DIZ
Aspergillus fumigatus [9] = test: Antimicrobial activity against Aspergillus fumigatus assessed as growth inhibition after 24 to 48 hr by two-fold serial dilution method; assay type: functional
Streptococcus pyogenes [10] = test: Antimicrobial activity against Streptococcus pyogenes ATCC 19615 assessed as growth inhibition after 24 to 48 hr by two-fold serial dilution method relative to chloramphenicol; assay type: functional
Aspergillus fumigatus [11] = test: Antimicrobial activity against Aspergillus fumigatus assessed as diameter of growth inhibition zone at 1 mg/ml by agar diffusion method; settings: read-out: DIZ
Fusarium oxysporum [12] = test: Antimicrobial activity against Fusarium oxysporum assessed as diameter of growth inhibition zone at 1 mg/ml […] by agar diffusion method; assay type: functional; settings: read-out: DIZ
Fusarium oxysporum [13] = test: Antimicrobial activity against Fusarium oxysporum assessed as growth inhibition after 24 to 48 hr by two-fold serial dilution method; assay type: functional
Staphylococcus aureus [14] = test: Antimicrobial activity against Staphylococcus aureus ATCC 25923 assessed as growth inhibition after 24 to 48 hr by two-fold serial dilution method relative to chloramphenicol; assay type: functional
Staphylococcus aureus [15] = test: Antimicrobial activity against Staphylococcus aureus ATCC 25923 assessed as growth inhibition after 24 to 48 hr by two-fold serial dilution method relative to cephalothin; assay type: functional

Structure (SMILES) | zone of inhibition at 1000 µg/mL (Staphylococcus aureus [1]) | zone of inhibition at 1000 µg/mL (Streptococcus pyogenes [2]) | MIC [3] | zone of inhibition at 1000 µg/mL (Pseudomonas fluorescens [4]) | MIC (Streptococcus pyogenes [5]) | MIC (Staphylococcus aureus [6]) | MIC (Pseudomonas fluorescens [7]) | zone of inhibition at 1000 µg/mL [8] | MIC (Aspergillus fumigatus [9]) | growth inhibition (GI) (Streptococcus pyogenes [10]) | zone of inhibition at 1000 µg/mL (Aspergillus fumigatus [11]) | zone of inhibition at 1000 µg/mL (Fusarium oxysporum [12]) | MIC (Fusarium oxysporum [13]) | growth inhibition (GI) (Staphylococcus aureus [14]) | growth inhibition (GI) (Staphylococcus aureus [15])
CC(=O)OCC1=C(C(=O)O)N2C(=O)[C@@H](NC(=O)Cc3cccs3)[C@H]2SC1 [CEPHALOTHIN] | 36 mm | 37 mm | 6.25 µg/mL (≈ 15.8 µM) | 37 mm | 6.25 µg/mL (≈ 15.8 µM) | 6.25 µg/mL (≈ 15.8 µM) | 6.25 µg/mL (≈ 15.8 µM) | 38 mm |  |  |  |  |  |  | 
COc1ccc(C2CC(c3ccc(-n4c(-c5ccc(OS(=O)(=O)c6ccc(C)cc6)cc5)nc5ccccc5c4=O)cc3)=NN2)cc1 (stereo unspecified) | 43 mm | 38 mm | 50 µg/mL (≈ 77.8 µM) |  | 6.25 µg/mL (≈ 9.72 µM) | 3.12 µg/mL (≈ 4.86 µM) | inactive | 19 mm | 12.5 µg/mL (≈ 19.4 µM) | 50% | 31 mm | 14 mm |  |  | 
Cc1ccc(S(=O)(=O)Oc2ccc(C(=O)Nc3ccccc3-c3nc4ccccc4[nH]3)cc2)cc1 | 25 mm | 25 mm | 50 µg/mL (≈ 103 µM) | 14 mm | 25 µg/mL (≈ 51.7 µM) | 25 µg/mL (≈ 51.7 µM) |  | 19 mm | inactive |  |  | 15 mm |  |  | 
Cc1ccc(S(=O)(=O)Oc2ccc(C3=Nc4ccccc4C4=NCCN34)cc2)cc1 | 25 mm | 37 mm | 25 µg/mL (≈ 59.9 µM) | 19 mm | 6.25 µg/mL (≈ 15 µM) | 25 µg/mL (≈ 59.9 µM) | 50 µg/mL (≈ 120 µM) | 26 mm |  |  | 14 mm | 15 mm |  |  | 
Cc1ccc(S(=O)(=O)Oc2ccc(-c3nc4ccccc4c4nc(=S)[nH]n34)cc2)cc1 | 44 mm | 37 mm |  | 19 mm | 6.25 µg/mL (≈ 13.9 µM) | 3.12 µg/mL (≈ 6.97 µM) | 50 µg/mL (≈ 111 µM) | 15 mm |  |  | 14 mm | 26 mm | 25 µg/mL (≈ 55.7 µM) |  | 
O=C(N[C@H](CO)[C@H](O)c1ccc([N+](=O)[O-])cc1)C(Cl)Cl [CHLORAMPHENICOL] | 42 mm | 44 mm | 6.25 µg/mL (≈ 19.3 µM) | 38 mm | 3.12 µg/mL (≈ 9.67 µM) | 3.12 µg/mL (≈ 9.67 µM) | 6.25 µg/mL (≈ 19.3 µM) | 37 mm |  |  |  |  |  |  | 
Cc1ccc(S(=O)(=O)Oc2ccc(-c3nc4ccccc4c4nc5ccccc5n34)cc2)cc1 | 26 mm | 25 mm |  | 37 mm | 25 µg/mL (≈ 53.7 µM) | 25 µg/mL (≈ 53.7 µM) | 6.25 µg/mL (≈ 13.4 µM) | 14 mm | 50 µg/mL (≈ 107 µM) |  | 20 mm | 16 mm |  |  | 
Cc1ccc(S(=O)(=O)Oc2ccc(-c3nc4ccccc4c4nc(=O)[nH]n34)cc2)cc1 | 15 mm | 15 mm | 6.25 µg/mL (≈ 14.5 µM) | 15 mm |  |  |  | 38 mm |  |  | 15 mm | 19 mm | 50 µg/mL (≈ 116 µM) |  | 
Cc1ccc(S(=O)(=O)Oc2ccc(-c3nnnn3-c3ccccc3C(=O)O)cc2)cc1 | 32 mm | 38 mm |  | 20 mm | 6.25 µg/mL (≈ 14.3 µM) | 12.5 µg/mL (≈ 28.6 µM) | 50 µg/mL (≈ 115 µM) | 14 mm | inactive |  |  | 19 mm | 50 µg/mL (≈ 115 µM) | 25% | 50%
